# Data reported in patent publication US9686984B2, “Macrocyclic picolinamides as fungicides” (DOW AGROSCIENCES LLC, priority 2014, dated 2017).
# Read-outs that look alike come from different tables or passages of the source.
# Tests used:
# [1] = tested on: Zymoseptoria tritici; test: Leaf Blotch of Wheat (SEPTTR) disease control on wheat seedlings; format: in vivo; conditions: for pest or weed control at 121.5 g/ha: Low Volume (121.5 g/H); for pest or weed control at 100 µg/mL: High Volume (100 ppm)
# Description: Example A: Evaluation of Fungicidal Activity: Leaf Blotch of Wheat (Mycosphaerella graminicola; Anamorph: Zymoseptoria tritici; Bayer code […]) Technical grades of materials were dissolved in acetone, which were then mixed with nine volumes of water containing 110 ppm Triton X-100. The fungicide solutions were applied onto wheat seedlings using an automated booth sprayer to run-off. All sprayed plants were allowed to air dry prior to further handling. All fungicides were evaluated using the aforementioned method for their activity vs. all target diseases, unless stated otherwise. Wheat leaf blotch and brown rust activity were also evaluated using track spray applications, in which case the fungicides were formulated as EC formulations, containing 0.1% Trycol 5941 in the spray solutions. Wheat plants (variety Yuma) were grown from seed in a greenhouse in 50% mineral soil/50% soil-less Metro mix until the first leaf was fully emerged, with 7-10 seedlings per pot. These plants were inoculated with an aqueous spore suspension of Septoria tritici either prior to or after fungicide treatments. After inoculation the plants were kept in 100% relative humidity (one day in a dark dew chamber followed by two to three days in a lighted dew chamber at 20° C.) to permit spores to germinate and infect the leaf. The plants were then transferred to a greenhouse set at 20° C. for disease to develop. When disease symptoms were fully expressed on the 1st leaves of untreated plants, infection levels were assessed on a scale of 0 to 100 percent disease severity. Percent disease control was calculated using the ratio of disease severity on treated plants relative to untreated plants.
# [2] = tested on: Puccinia triticina; test: Wheat Brown Rust (PUCCRT) disease control on wheat seedlings; format: in vivo; conditions: for pest or weed control at 121.5 g/ha: Low Volume (121.5 g/H); for pest or weed control at 100 µg/mL: High Volume (100 ppm)
# Description: Technical grades of materials were dissolved in acetone, which were then mixed with nine volumes of water containing 110 ppm Triton X-100. The fungicide solutions were applied onto wheat seedlings using an automated booth sprayer to run-off. All sprayed plants were allowed to air dry prior to further handling. All fungicides were evaluated using the aforementioned method for their activity vs. all target diseases, unless stated otherwise. Wheat leaf blotch and brown rust activity were also evaluated using track spray applications, in which case the fungicides were formulated as EC formulations, containing 0.1% Trycol 5941 in the spray solutions. Wheat plants (variety Yuma) were grown from seed in a greenhouse in 50% mineral soil/50% soil-less Metro mix until the first leaf was fully emerged, with 7-10 seedlings per pot. These plants were inoculated with an aqueous spore suspension of Septoria tritici either prior to or after fungicide treatments. After inoculation the plants were kept in 100% relative humidity (one day in a dark dew chamber followed by two to three days in a lighted dew chamber at 20° C.) to permit spores to germinate and infect the leaf. The plants were then transferred to a greenhouse set at 20° C. for disease to develop. When disease symptoms were fully expressed on the 1st leaves of untreated plants, infection levels were assessed on a scale of 0 to 100 percent disease severity. Percent disease control was calculated using the ratio of disease severity on treated plants relative to untreated plants. Example B: Evaluation of Fungicidal Activity: Wheat Brown Rust (Puccinia triticina; Synonym: Puccinia recondita f. sp. tritici; Bayer code PUCCRT) Wheat plants (variety Yuma) were grown from seed in a greenhouse in 50% mineral soil/50% soil-less Metro mix until the first leaf was fully emerged, with 7-10 seedlings per pot. These plants were inoculated with an aqueous spore suspension of Puccinia triticina either prior to or after fungicide treatments. After inoculation the plants were kept in a dark dew room at 22° C. with 100% relative humidity overnight to permit spores to germinate and infect the leaf. The plants were then transferred to a greenhouse set at 24° C. for disease to develop. Fungicide formulation, application and disease assessment followed the procedures as described in the Example A.
# [3] = 24 h, 1 Day Protectant, read-out: SEPTTR disease control, 1 DP
# [4] = 72 h, 3 Day Curative, read-out: SEPTTR disease control, 3 DC
# [5] = 24 h, 1 Day Protectant, read-out: PUCCRT disease control, 1 DP
# [6] = 72 h, 3 Day Curative, read-out: PUCCRT disease control, 3 DC
SMILES,melting point [°C],"pest or weed control at 121.5 g/ha [1, 3] [%]","pest or weed control at 121.5 g/ha [1, 4] [%]","pest or weed control at 121.5 g/ha [2, 5] [%]","pest or weed control at 121.5 g/ha [2, 6] [%]","pest or weed control at 100 µg/mL [1, 3] [%]","pest or weed control at 100 µg/mL [1, 4] [%]","pest or weed control at 100 µg/mL [2, 5] [%]","pest or weed control at 100 µg/mL [2, 6] [%]"
CC(C)CC[C@H]1[C@H](C)OC(=O)[C@@H](NC(=O)OC(C)(C)C)CCO[C@@H]1CCc1ccc(F)cc1 [Compound 100],39 to 44,,,,,,,,
COc1ccnc(C(=O)N[C@H]2CCOC[C@@H](CCC(C)C)[C@H](C)OC2=O)c1O [Compound 63],49 to 53,,,,,,,,
CCCC[C@H]1[C@H](C)OC(=O)[C@@H](NC(=O)c2nccc(OC)c2OC(C)=O)CCO[C@@H]1CCc1ccccc1 [Compound 13],,> 70,> 70,> 70,> 70,,,,
CCCC[C@H]1[C@H](C)OC(=O)[C@@H](NC(=O)c2nccc(OC)c2OC(C)=O)CCO[C@@H]1COc1ccccc1 [Compound 15],,> 70,> 70,> 70,> 70,,,,
COCC[C@H]1OCC[C@H](NC(=O)c2nccc(OC)c2OCOC(C)=O)C(=O)O[C@@H](C)[C@@H]1Cc1ccc(F)cc1 [Compound 25],,< 70,< 70,> 70,> 70,,,,
CCCC[C@H]1[C@H](C)OC(=O)[C@@H](NC(=O)c2nccc(OC)c2OCOC(=O)COCC)CCO[C@@H]1CCc1ccccc1 [Compound 45],,> 70,> 70,> 70,> 70,,,,
COc1ccnc(C(=O)N[C@H]2CCOC[C@@H](Cc3ccc(F)cc3)[C@H](C)OC2=O)c1OCOC(C)=O [Compound 21],,> 70,< 70,> 70,> 70,,,,
CC(C)CC[C@H]1[C@H](C)OC(=O)[C@@H](NC(=O)OC(C)(C)C)CCO[C@@H]1Cc1ccccc1 [Compound 102],41 to 44,,,,,,,,
COc1ccnc(C(=O)N[C@H]2CCOC[C@@H](Cc3ccc(F)cc3)[C@H](C)OC2=O)c1OC(C)=O [Compound 5],,> 70,< 70,> 70,> 70,,,,
CCCC[C@H]1OCC[C@H](NC(=O)c2nccc(OC)c2OCOC(C)=O)C(=O)O[C@@H](C)[C@@H]1Cc1ccc(F)cc1 [Compound 23],,> 70,> 70,> 70,> 70,,,,
COCC[C@H]1OCC[C@H](NC(=O)c2nccc(OC)c2OCOC(C)=O)C(=O)O[C@@H](C)[C@@H]1Cc1ccccc1 [Compound 20],,> 70,> 70,> 70,> 70,,,,
COCC[C@H]1OCC[C@H](NC(=O)c2nccc(OC)c2OC(C)=O)C(=O)O[C@@H](C)[C@@H]1Cc1ccc(F)cc1 [Compound 8],,> 70,< 70,> 70,> 70,,,,
CCCC[C@H]1[C@H](C)OC(=O)[C@@H](NC(=O)c2nccc(OC)c2OCOC(C)=O)CCO[C@@H]1COc1ccccc1 [Compound 35],,> 70,> 70,> 70,> 70,,,,
COc1ccnc(C(=O)N[C@H]2CCO[C@H](CCc3ccccc3)[C@@H](Cc3ccc(F)cc3)[C@H](C)OC2=O)c1OCOC(=O)C(C)C [Compound 38],,> 70,> 70,> 70,> 70,,,,
COc1ccnc(C(=O)N[C@H]2CCOC[C@@H](Cc3ccccc3)[C@H](C)OC2=O)c1OCOC(C)=O [Compound 16],,< 70,< 70,> 70,> 70,,,,
CC[C@H]1OCC[C@H](NC(=O)c2nccc(OC)c2O)C(=O)O[C@@H](C)[C@@H]1Cc1ccc(F)cc1 [Compound 55],,,,,,> 70,> 70,> 70,> 70
CCCC[C@H]1OCC[C@H](NC(=O)c2nccc(OC)c2O)C(=O)O[C@@H](C)[C@@H]1Cc1ccc(F)cc1 [Compound 56],,,,,,< 70,> 70,> 70,> 70
CCCC[C@H]1[C@H](C)OC(=O)[C@@H](NC(=O)c2nccc(OC)c2OCOC(C)=O)CCO[C@@H]1COC(=O)C(C)C [Compound 32],,> 70,> 70,> 70,> 70,,,,
CCCC[C@H]1[C@H](C)OC(=O)[C@@H](N)CCO[C@@H]1COc1ccccc1.Cl,195 to 197,,,,,,,,
COc1ccnc(C(=O)N[C@H]2CCO[C@H](CCc3ccc(F)cc3)[C@@H](CCC(C)C)[C@H](C)OC2=O)c1OC(C)=O [Compound 10],,> 70,> 70,> 70,> 70,,,,
"COc1ccnc(C(=O)N[C@H]2CCO[C@H](Cc3ccccc3)[C@@H](Cc3ccccc3)[C@H](C)OC2=O)c1OCOC(=O)C(C)C [Compound 37, ((2-(((2R,3S,4S,7S)-2,3-dibenzyl-4-methyl-6-oxo-1,5-dioxonan-7-yl)carbamoyl)-4-methoxypyridin-3-yl)oxy)methyl isobutyrate]",,> 70,> 70,> 70,> 70,,,,
CCCC[C@H]1[C@H](C)OC(=O)[C@@H](NC(=O)c2nccc(OC)c2OCOC(=O)COCC)CCO[C@@H]1CC [Compound 46],,> 70,< 70,> 70,> 70,,,,
CCCC[C@H]1[C@H](C)OC(=O)[C@@H](NC(=O)c2nccc(OC)c2O)CCO[C@@H]1COc1ccccc1 [Compound 68],,,,,,> 70,< 70,> 70,> 70
CC(C)CC[C@@H]1COCC[C@H](NC(=O)OC(C)(C)C)C(=O)O[C@H]1C [Compound 103],110 to 112,,,,,,,,
COc1ccnc(C(=O)N[C@H]2CCOC[C@@H](Cc3ccccc3-c3ccccc3)[C@H](C)OC2=O)c1OCOC(C)=O [Compound 28],,> 70,> 70,> 70,> 70,,,,
CCOCC(=O)OCOc1c(OC)ccnc1C(=O)N[C@H]1CCO[C@H](Cc2ccccc2)[C@@H](Cc2ccccc2)[C@H](C)OC1=O [Compound 44],,> 70,> 70,> 70,> 70,,,,
COc1ccnc(C(=O)N[C@H]2CCOC[C@@H](Cc3ccccc3-c3ccccc3)[C@H](C)OC2=O)c1OC(C)=O [Compound 11],,> 70,< 70,> 70,> 70,,,,
